Source: the CheMixHub drug solubility set

Assay: xn = mol fraction of the nth substance listed, in the solute-free solvent

COC(=O)Nc1nc2ccccc2[nH]1 + CCCO + O
solubility (g/100 g solution)
Conditions	278.15 K	283.15 K	288.15 K	293.15 K	298.15 K	303.15 K	308.15 K	313.15 K	318.15 K
x2 = 0.03228	0.000759	0.000937	0.00117	0.00145	0.00179	0.00212	0.00255	0.00307	0.00365
x2 = 0.06986	0.00122	0.00153	0.00195	0.00246	0.00308	0.00372	0.00456	0.00552	0.00671
x2 = 0.1138	0.00157	0.00198	0.00262	0.00333	0.00428	0.00526	0.0066	0.00814	0.01
x2 = 0.1665	0.0017	0.00223	0.00302	0.00394	0.00516	0.00653	0.00832	0.0105	0.0132
x2 = 0.2308	0.0017	0.00229	0.00318	0.00426	0.0057	0.00739	0.00966	0.0124	0.016
x2 = 0.3105	0.00161	0.00218	0.0032	0.00441	0.00599	0.00796	0.0107	0.0141	0.0185
x2 = 0.4108	0.00149	0.0021	0.00313	0.00441	0.00614	0.00837	0.0115	0.0155	0.0208
x2 = 0.5455	0.00136	0.00196	0.00302	0.00436	0.00622	0.0087	0.0123	0.0169	0.0232
x2 = 0.7314	0.00123	0.00179	0.00287	0.00425	0.00617	0.00889	0.0128	0.0181	0.0254

CC(C)C(=O)Nc1ccc([N+](=O)[O-])c(C(F)(F)F)c1 + CCO + O
solubility (g/100 g solution)
Conditions	278.15 K	283.15 K	288.15 K	293.15 K	298.15 K	303.15 K	308.15 K	313.15 K	318.15 K	323.15 K
x2 = 0.04165	0.00282	0.00366	0.00476	0.00623	0.00797	0.0102	0.0129	0.0162	0.0203	0.0251
x2 = 0.08908	0.0183	0.0236	0.0305	0.0388	0.0499	0.0632	0.0793	0.0976	0.122	0.148
x2 = 0.1436	0.0774	0.0967	0.124	0.158	0.199	0.246	0.305	0.377	0.462	0.568
x2 = 0.2068	0.289	0.358	0.447	0.563	0.694	0.851	1.04	1.26	1.54	1.86
x2 = 0.2812	0.894	1.09	1.34	1.62	1.93	2.32	2.77	3.31	3.89	4.58
x2 = 0.3698	2.17	2.59	3.2	3.88	4.59	5.48	6.38	7.52	8.74	10.2
x2 = 0.4772	4.83	5.78	6.84	8.03	9.49	11	12.8	14.7	16.8	19.1
x2 = 0.6101	8.9	10.5	12.3	14.3	16.5	19	21.5	24.4	27.2	30.6
x2 = 0.7788	13.7	15.9	18.4	21.1	24.4	27.7	30.7	34.4	38.1	41.7
